Laboratory results taken from patent US6482609B1, “Isolated human EDG-4 receptor and polynucletide encoding said receptor” (priority 1997, dated 2002).

What was measured:
[1] = tested on: Human Umbilical Vein Endothelial Cells (HUVEC); experiment: IL-8 ELISA on primary cultured HUVEC treated with lysolipids; format: cell-based; settings: 5 μM, 6 hr
Procedure: Plating, Pretreatment and Treatment of HUVEC
Procedures were followed as detailed above in “Procedure #1 for HeLa Cells” with the following exceptions:
Cells were plated at 20,000 cells/well into 24-well plates. The next day, cells were serum-starved overnight in EBM medium (Clonetics) with 0.5% FBS, and then treated in EBM without FBS for 6 hr with the following lysolipids:
Supematants were collected and IL-8 levels were deternined using ELISA as described previously.

HL-60 cells = experiment: IL-8 ELISA on HL-60 cells; format: cell-based, human; settings: 1, 6 or 24 hr, S1P or LPA up to 3 μM, TNF-α 10 ng/ml
Procedure: Procedure for HL-60 Cells:
Cells: HL-60 (promyelocytic, human) suspension cells
Media: RPMI 1640 medium with 2 mM L-glutamine adjusted to contain 4.5 g/L glucose, 10 mM HEPES, and 1.0 mM sodium pyruvate+10% FBS
1) Cells were plated at a density of 0.25×10^6 cells/ml.
2) Cell pellcts were resuspended in 0.5% FBS media at a density of approximately 1×10^6 cells/ml.
1) Made up all required solutions in 0.5% FBS media (control).
2) 1.4 ml appropriate treatments were added to each well of a 6-well plate.
5) 100 μl cell suspension was added to each well.
7) After the specified time cell supematants were collected into 1.5 ml eppendorf tubes, spun down at 14000 rpm for 5 minutes and stored at −20° C.
D. Refer to Procedure #1 For HeLa Cells (D).

293-EBNA cells = experiment: IL-8 production in untransfected 293-EBNA cells; format: cell-based
[2] = tested on: 293-EBNA cells transfected with empty expression vector pcDNA3; experiment: NF-κB luciferase reporter in 293-EBNA cells, empty vector pcDNA3; format: cell-based; settings: pcDNA3; 10 μM LPA; overnight
Procedure: Monolayer Transient Transfection Protocol for 293-EBNA
2) 6.6 μg NF-κB-tk-p4Luc reporter DNA and 6.6 μg of pC3-redg4 (expressing rat EDG-4), or pcDNA3 DNA was diluted in 500 μl OPTI-MEM (Gibco; Cat. 31985-062)
2) After 6 hrs, media was removed and cells treated with compounds diluted in 0.5% FBS media (140 μl added to each well).
3) Cells were treated for 24 hrs.
1) Luclite kit (Packard; Cat. 6016911) was used for luciferase assay. All reagents were brought to room temperature before use.
7) After incubation, plates were counted in a 12-detector Packard Top Count on a program without dark delay.
(§1) The above protocol for assay 1 was followed except for the following changes:
(§2) 2) 3 μg NFκB-tk-p4Luc reporter DNA and 3 μg pC3-hedg1, pC3-hedg3, pC3-redg4, pC3-hedg5 or pcDNA3 DNA was diluted in 240 μl OPTI-MEM (Gibco; Cat. 31985-062)
(§3) 2) SRE Cotransfection: 0.5 μg of 2XSREtk-p4Luc-zeo reporter DNA and 3.5 μg pcDNA3, EDG-1, EDG-3 (pC3-hE3HP2, different from the clone used in Assay 2 of Example 11) or the newly cloned human EDG-4 (pC3-hedg4#36); NF-κB Cotransfection: 2 μg 6XNFκBtk-p4Luc-zeo reporter DNA and 2.0 μg pcDNA3, EDG-1, EDG-3 (pC3-hE3HP2), or EDG-4 (pC3-hedg4#36). Expression plasmid and reporter plasmid DNA samples were combined and diluted in 750 μl of DMEM/F12 (serum free media) and 20 μl Plus Reagent (Lipofectamine Plus Kit, Life Technologies Cat. 10964-013), and incubated at room temperature for 15 min.
(§4) 1) Media was removed and cells treated with compounds diluted in DMEM/F12 media.
(§5) 2) The cells were treated for 6 hours.
(§6) 293-EBNA cells were grown, lipofected in monolayer cultures, and pretreated as described above for Example 11, assay #1, except that NF-κB and AP-1 reporter-transfected cells were pretreated for 6 hr in medium containing 0.5% FBS, then treated overnight in the same medium with or without 10 μM LPA.

EDG-5 [3] = target: T1, EDG-5 (Homo sapiens, UniProt Q9UBY5); experiment: NF-κB luciferase reporter in 293-EBNA cells, EDG-5; format: cell-based; settings: 10 μM LPA, overnight
T1 construct: expressed in transfected cells; host or cells: 293-EBNA
T1 sequence (Q9UBY5 1-353): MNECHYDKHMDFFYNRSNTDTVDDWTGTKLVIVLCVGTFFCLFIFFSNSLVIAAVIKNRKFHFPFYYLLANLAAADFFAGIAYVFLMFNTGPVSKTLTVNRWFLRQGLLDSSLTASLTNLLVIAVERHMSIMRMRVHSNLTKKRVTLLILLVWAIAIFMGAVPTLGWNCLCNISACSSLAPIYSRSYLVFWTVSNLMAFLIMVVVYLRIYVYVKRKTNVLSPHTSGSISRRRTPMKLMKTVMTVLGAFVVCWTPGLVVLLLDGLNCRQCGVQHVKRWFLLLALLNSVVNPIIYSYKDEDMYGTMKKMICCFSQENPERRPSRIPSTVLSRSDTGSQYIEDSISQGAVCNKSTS
Procedure: Transient Transfection Protocol for 293-EBNA
as §1, §2
1) 0.01×10^6 cells were plated per well of a 96-well Blackview plate coated with polyD-lysine. No cells were plated in the outside wells of the 96-well plate.
LPA, like S1P, is abundant in serun, but not plasma. Moreover, LPA is produced as a consequence of phospholipase A2 with or without the contribution of phospholipase D (depending on the phospholipid substrate). […] To date we have identified three subtypes of edg receptors that respond to LPA as an agonist. These are EDG-2, EDG-6 and EDG-5 (referred to also as LPA1, LPA2 and LPA3, respectively (Chun, J, Contos, J J A and Munroe, D G. 1998. A growing family of receptor genes for lysophosphatidic acid (LPA) and other lyso-phospholipids. Cell Biochem Biophys (in press)). The EDG-5 receptor is set out in co-pending U.S. application Ser. No. 08/997,803 to MLUNROE et al., incorporated herein by reference and the amino acid sequence and cDNA sequence for the EDG-6 receptor is set out in FIGS. 21 and 22, respectively. To determine whether these receptors might mediate inflammatory responses, each was cotransfected separately with SRE, NF-κB or AP-1 reporter genes. […]

[4] = tested on: 293-EBNA cells transfected with empty expression vector pcDNA3; experiment: SRE luciferase reporter in 293-EBNA cells, empty vector pcDNA3; format: cell-based; settings: 10 μM LPA
Procedure: NE-κB activates gene expression by binding to specific DNA sequences found in the promoters of genes regulated by this inflammation-related transcription factor. […] The SRE reporter was identical to the NF-κB reporter, except that the NF-κB binding sites were replaced with 2 SRE sites. The new reporter was called 2XSREtk-p4Luc-zeo.
The protocol described in Example 11 for Assay 1 was followed except for the following changes:
as §3, §4, §5
Transfection was accomplished using the Lipofectamine Plus kit (Life Technologies, Cat. 10964-013), using the manufacturer's recommended conditions.
as §6

EDG-2 [5] = target: T2, EDG-2 (Homo sapiens, UniProt Q92633); experiment: NF-κB reporter in 293-EBNA cells, EDG-2; format: cell-based; settings: 10 μM LPA, overnight
T2 construct: expressed in transfected cells; host or cells: 293-EBNA
T2 sequence (Q92633 whole entry): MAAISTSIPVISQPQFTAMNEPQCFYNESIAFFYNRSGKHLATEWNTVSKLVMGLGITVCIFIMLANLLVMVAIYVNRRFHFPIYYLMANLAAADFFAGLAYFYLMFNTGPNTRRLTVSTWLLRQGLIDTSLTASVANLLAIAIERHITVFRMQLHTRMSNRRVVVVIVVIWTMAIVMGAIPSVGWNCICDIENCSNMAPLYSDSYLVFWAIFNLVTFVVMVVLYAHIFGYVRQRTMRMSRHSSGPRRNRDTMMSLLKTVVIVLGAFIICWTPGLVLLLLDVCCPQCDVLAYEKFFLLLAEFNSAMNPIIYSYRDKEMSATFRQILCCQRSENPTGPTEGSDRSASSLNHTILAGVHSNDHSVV
Text: (§7) LPA, like S1P, is abundant in serun, but not plasma. Moreover, LPA is produced as a consequence of phospholipase A2 with or without the contribution of phospholipase D (depending on the phospholipid substrate). […] To date we have identified three subtypes of edg receptors that respond to LPA as an agonist. These are EDG-2, EDG-6 and EDG-5 (referred to also as LPA1, LPA2 and LPA3, respectively (Chun, J, Contos, J J A and Munroe, D G. 1998. A growing family of receptor genes for lysophosphatidic acid (LPA) and other lyso-phospholipids. Cell Biochem Biophys (in press)). The EDG-5 receptor is set out in co-pending U.S. application Ser. No. 08/997,803 to MLUNROE et al., incorporated herein by reference and the amino acid sequence and cDNA sequence for the EDG-6 receptor is set out in FIGS. 21 and 22, respectively. To determine whether these receptors might mediate inflammatory responses, each was cotransfected separately with SRE, NF-κB or AP-1 reporter genes. […] This transcription factor, like NF-κB has been implicated in inflammatory and neoplastic signal transduction., though the gene targets of its action are largely distinct from those of NF-κB (Adcock IM. 1997. Transcription factors as activators of gene transcription: AP-1 and NF-κB. Monaldi Arch Chest Dis 52:178-186. Review). […]

EDG-6 [6] = experiment: NF-κB reporter in 293-EBNA cells, EDG-6; format: cell-based, human; settings: 10 μM LPA, overnight
Text: as §7
Target sequence in this assay (Q9HBW0 1-340 limits assumed): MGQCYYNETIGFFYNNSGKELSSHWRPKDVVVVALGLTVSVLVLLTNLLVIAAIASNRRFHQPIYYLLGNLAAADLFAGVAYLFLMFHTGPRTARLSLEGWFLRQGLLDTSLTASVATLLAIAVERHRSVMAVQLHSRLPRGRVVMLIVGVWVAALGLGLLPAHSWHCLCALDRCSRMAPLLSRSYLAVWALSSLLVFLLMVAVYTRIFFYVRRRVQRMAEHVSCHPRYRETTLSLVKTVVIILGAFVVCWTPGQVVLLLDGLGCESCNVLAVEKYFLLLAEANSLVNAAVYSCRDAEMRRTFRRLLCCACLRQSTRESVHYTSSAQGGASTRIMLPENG

EDG-2 [7] = target: T2, EDG-2; experiment: SRE reporter in 293-EBNA cells, EDG-2; format: cell-based; settings: 10 μM LPA
Text: as §7

EDG-5 [8] = target: T1, EDG-5; experiment: SRE reporter in 293-EBNA cells, EDG-5; format: cell-based; settings: 10 μM LPA
Text: as §7

EDG-6 [9] = experiment: SRE reporter in 293-EBNA cells, EDG-6; format: cell-based, human; settings: 10 μM LPA
Text: as §7
Target sequence in this assay (Q9HBW0 1-330 limits assumed): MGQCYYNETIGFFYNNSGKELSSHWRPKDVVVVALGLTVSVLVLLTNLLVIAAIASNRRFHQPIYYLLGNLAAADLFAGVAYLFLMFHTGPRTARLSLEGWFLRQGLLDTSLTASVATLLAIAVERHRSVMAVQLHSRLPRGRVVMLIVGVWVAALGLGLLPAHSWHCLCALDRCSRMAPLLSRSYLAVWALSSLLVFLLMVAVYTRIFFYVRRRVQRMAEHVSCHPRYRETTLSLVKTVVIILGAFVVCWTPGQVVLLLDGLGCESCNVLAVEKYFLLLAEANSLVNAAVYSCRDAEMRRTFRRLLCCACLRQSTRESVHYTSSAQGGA

EDG-2 [10] = target: T2, EDG-2; experiment: AP-1 reporter in 293-EBNA cells, EDG-2; format: cell-based; settings: 10 μM LPA
Text: as §7

EDG-5 [11] = target: T1, EDG-5; experiment: AP-1 reporter in 293-EBNA cells, EDG-5; format: cell-based; settings: 10 μM LPA
Text: as §7

EDG-6 [12] = experiment: AP-1 reporter in 293-EBNA cells, EDG-6; format: cell-based, human; settings: 10 μM LPA
Text: as §7
Target sequence in this assay (Q9HBW0 1-340 limits assumed): as the sequence (Q9HBW0 1-340 limits assumed) above

[13] = tested on: 293-EBNA cells transfected with empty expression vector pcDNA3; experiment: AP-1 reporter in 293-EBNA cells, empty vector pcDNA3; format: cell-based; settings: 10 μM LPA
Text: as §7

- Activation of the NF-κB reporter (EDG-5 [3]): 3-4 fold
- Activation of the NF-κB reporter (EDG-2 [5]): 3-4 fold
- Induction of the SRE reporter (EDG-2 [7]): greater than 2 fold
- Induction of the SRE reporter (EDG-5 [8]): greater than 2 fold
- Induction of the AP-1 reporter (EDG-2 [10]): greater than 2 fold
- Induction of the AP-1 reporter (EDG-5 [11]): greater than 2 fold
Substance: lysophosphatidic acid [LPA]
- IL-8 levels increase over untreated controls [1]: 3 fold
- IL-8 release (HL-60 cells): no such release
- IL-8 production (293-EBNA cells): no IL-8 production
- NF-κB reporter response in control cells [2]: no response to LPA
- Endogenous SRE reporter response vs untreated control cells [4]: about 1.5 fold
- Activation of the NF-κB reporter (EDG-6 [6]): 3-4 fold
- SRE reporter induction (EDG-6 [9]): strongly induced both reporters
- AP-1 reporter induction (EDG-6 [12]): strongly induced both reporters
- Endogenous AP-1 reporter response vs untreated control cells [13]: about 1.5 fold
